Reference: US20250388553A1 (Incyte Corporation, priority 2018, published 2025)
Structures can show the parent of a compound that is named as a salt.

Assays:
[1] = target: PI3Kδ (p1106/p85a) Recombinant Human Protein (Homo sapiens (Human), UniProt O00329); experiment: PI3Kδ scintillation proximity assay; type: biochemical; settings: scintillation proximity assay, recombinant human PI3Kδ
Text: Example C. PI3Kδ Scintillation Proximity Assay
(§1) Materials: [γ-^33P]ATP (10 mCi/mL) and Wheat Germ Agglutinin (WGA) YSi SPA Scintillation Beads was purchased from Perkin Elmer (Waltham, MA). Lipid kinase substrate, D-myo-Phosphatidylinositol 4,5-bisphosphate (PtdIns(4,5)P2)D (+)-sn-1,2-di-O-octanoylglyceryl, 3-O-phospho linked (PIP2), CAS 204858-53-7, was purchased from Echelon Biosciences (Salt Lake City, UT). PI3Kδ (p1106/p85a) Recombinant Human Protein was purchased from Eurofins (St Charles, MO). ATP, MgCl2, DTT, EDTA, MOPS and CHAPS were purchased from Sigma Aldrich (St. Louis, MO).
(§2) The kinase reaction was conducted in polystyrene 384-well Greiner Bio-one white plate from Thermo Fisher Scientific in a final volume of 25 μL. Inhibitors were first diluted serially in DMSO and added to the plate wells before the addition of other reaction components. The final concentration of DMSO in the assay was 2%. The PI3Kδ assay was carried out at room temperature in 20 mM MOPS, pH 6.7, 10 mM MgCl2, 5 mM DTT and CHAPS 0.03%. Reactions were initiated by the addition of ATP, the final reaction mixture consisted of 20 µM […], 0.5 μCi [γ-^33P]ATP, 3.4 nM PI3Kδ. Reactions were incubated for 120 min and terminated by the addition of 40 μL SPA beads suspended in quench buffer: 163 mM potassium phosphate pH 7.8, 20% glycerol, 25 mM EDTA. The final concentration of SPA beads is 1.0 mg/mL. After the plate sealing, plates were shaken overnight at room temperature and centrifuged at 1500 rpm for 10 min, the radioactivity of the product was determined by scintillation counting on Topcount (PerkinElmer). IC50 determination was performed by fitting the curve of percent of the solvent control activity versus the log of the inhibitor concentration using the GraphPad Prism 6.0 software.
(§3) The compounds of the Examples were tested in the assays described in Examples A, B and C and found to have the IC50s are shown in Tables A1, A2, A3 and A4.

[2] = target: PI3Kγ (p110γ) Recombinant Human Protein (Homo sapiens (Human), UniProt P48736); experiment: PI3K-γ scintillation proximity assay; type: biochemical; settings: Table A1; scintillation proximity assay, recombinant human p110γ
Text: Example B. PI3K-γ Scintillation Proximity Assay
as §1, with “PI3Kγ (p110γ)” for “PI3Kδ (p1106/p85a)”, “Life technology (Grand Island, NY).” for “Eurofins (St Charles, MO).”
as §2, with “[…].” for “μL.”, “PI3Kγ” for “PI3Kδ”, “13” for “3.4”, “PI3Kγ.” for “PI3Kδ.”, “(Perkin-Elmer).” for “(PerkinElmer).”
as §3

Sequence of PI3Kδ (p1106/p85a) Recombinant Human Protein (O00329 whole entry): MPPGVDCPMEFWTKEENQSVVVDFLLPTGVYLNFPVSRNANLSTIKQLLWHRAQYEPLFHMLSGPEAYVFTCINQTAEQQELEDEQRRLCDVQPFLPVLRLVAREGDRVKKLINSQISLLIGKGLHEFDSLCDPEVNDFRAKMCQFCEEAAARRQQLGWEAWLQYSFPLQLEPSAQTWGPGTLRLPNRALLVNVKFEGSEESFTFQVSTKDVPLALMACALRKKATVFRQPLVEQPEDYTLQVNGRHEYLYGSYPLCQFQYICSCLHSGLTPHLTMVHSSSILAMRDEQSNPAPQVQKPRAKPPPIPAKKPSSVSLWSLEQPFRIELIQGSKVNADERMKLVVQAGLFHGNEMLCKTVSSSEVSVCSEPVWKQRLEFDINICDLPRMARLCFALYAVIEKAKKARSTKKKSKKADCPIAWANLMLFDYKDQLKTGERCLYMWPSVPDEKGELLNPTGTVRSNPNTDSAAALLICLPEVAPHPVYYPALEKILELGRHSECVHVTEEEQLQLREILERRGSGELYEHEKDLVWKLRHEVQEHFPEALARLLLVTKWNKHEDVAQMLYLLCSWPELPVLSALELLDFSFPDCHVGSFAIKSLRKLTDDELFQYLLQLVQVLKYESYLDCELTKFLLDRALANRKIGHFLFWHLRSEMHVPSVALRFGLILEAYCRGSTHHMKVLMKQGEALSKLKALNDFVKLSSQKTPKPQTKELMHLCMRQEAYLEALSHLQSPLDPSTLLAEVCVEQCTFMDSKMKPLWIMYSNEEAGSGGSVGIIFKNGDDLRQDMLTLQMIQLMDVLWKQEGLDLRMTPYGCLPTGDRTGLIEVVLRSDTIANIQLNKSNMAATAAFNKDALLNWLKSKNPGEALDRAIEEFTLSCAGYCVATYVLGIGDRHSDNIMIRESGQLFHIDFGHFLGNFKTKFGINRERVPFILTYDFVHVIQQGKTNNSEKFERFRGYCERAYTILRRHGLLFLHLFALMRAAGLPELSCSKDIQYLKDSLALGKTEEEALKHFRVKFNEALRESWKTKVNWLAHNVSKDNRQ
Sequence of PI3Kδ (p1106/p85a) Recombinant Human Protein (P27986 whole entry partner): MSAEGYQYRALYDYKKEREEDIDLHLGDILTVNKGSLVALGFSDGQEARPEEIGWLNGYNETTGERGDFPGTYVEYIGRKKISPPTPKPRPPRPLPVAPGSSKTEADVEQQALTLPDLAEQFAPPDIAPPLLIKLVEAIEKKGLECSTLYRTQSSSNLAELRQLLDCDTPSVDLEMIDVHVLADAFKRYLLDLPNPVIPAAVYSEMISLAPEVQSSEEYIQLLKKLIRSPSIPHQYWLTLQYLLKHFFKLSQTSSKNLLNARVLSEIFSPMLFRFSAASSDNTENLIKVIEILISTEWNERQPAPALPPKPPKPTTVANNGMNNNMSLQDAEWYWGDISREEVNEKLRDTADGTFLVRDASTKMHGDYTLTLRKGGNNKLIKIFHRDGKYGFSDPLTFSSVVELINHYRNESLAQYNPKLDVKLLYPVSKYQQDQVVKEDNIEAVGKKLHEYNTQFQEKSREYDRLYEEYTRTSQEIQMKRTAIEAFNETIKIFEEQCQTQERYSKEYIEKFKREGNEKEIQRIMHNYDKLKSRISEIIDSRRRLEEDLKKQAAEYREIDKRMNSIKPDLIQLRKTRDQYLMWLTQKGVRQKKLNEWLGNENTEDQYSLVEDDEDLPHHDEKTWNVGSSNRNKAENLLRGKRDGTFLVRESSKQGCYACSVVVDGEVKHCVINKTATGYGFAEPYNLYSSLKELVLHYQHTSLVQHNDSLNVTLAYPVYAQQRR
Sequence of PI3Kγ (p110γ) Recombinant Human Protein (P48736 whole entry): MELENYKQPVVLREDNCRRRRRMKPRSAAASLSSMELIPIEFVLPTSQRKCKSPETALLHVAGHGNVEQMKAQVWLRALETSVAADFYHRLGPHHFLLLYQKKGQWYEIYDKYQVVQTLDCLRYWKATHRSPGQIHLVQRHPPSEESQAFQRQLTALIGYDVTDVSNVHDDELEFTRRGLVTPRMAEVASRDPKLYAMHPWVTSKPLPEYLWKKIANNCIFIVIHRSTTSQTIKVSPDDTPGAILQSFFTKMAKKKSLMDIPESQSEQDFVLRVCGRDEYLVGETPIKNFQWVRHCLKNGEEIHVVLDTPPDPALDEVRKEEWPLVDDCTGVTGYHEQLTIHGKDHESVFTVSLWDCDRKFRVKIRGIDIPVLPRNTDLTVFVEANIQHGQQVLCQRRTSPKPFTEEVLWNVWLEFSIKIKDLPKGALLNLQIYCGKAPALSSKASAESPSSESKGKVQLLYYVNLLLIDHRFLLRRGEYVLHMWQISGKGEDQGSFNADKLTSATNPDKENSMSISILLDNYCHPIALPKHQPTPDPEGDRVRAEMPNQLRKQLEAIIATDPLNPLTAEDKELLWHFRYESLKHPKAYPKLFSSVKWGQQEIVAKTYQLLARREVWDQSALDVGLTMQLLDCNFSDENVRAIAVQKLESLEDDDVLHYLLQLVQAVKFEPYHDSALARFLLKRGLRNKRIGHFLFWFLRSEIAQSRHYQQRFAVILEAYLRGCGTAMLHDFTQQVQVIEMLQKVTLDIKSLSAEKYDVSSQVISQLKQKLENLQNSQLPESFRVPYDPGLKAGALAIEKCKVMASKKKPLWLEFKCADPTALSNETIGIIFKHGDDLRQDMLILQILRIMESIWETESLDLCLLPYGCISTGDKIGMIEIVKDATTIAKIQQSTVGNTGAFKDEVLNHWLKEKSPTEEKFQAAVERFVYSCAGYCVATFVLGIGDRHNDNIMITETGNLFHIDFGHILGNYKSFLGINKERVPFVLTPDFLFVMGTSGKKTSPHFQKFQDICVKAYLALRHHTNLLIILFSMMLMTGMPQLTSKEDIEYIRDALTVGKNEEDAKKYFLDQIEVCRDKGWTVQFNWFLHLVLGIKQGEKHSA

| SMILES | IC50 ([1]; Table A1) [nM] | IC50 [2] [nM] | IC50 ([1]; Table A4) [nM] |
| --- | --- | --- | --- |
| Cc1ccc(C(O)(C(N)=O)C(F)(F)F)cc1-c1cnc(N)c(C(=O)NC2CC3CCC2O3)n1 (single isomer, unassigned) [Example 30, 3-amino-6-(5-(3-amino-1,1,1-trifluoro-2-hydroxy-3-oxopropan-2-yl)-2-methylphenyl)-N-(7-oxabicyclo[2.2.1]heptan-2-yl)pyrazine-2-carboxamide] | < 100 | < 100 | – |
| Cc1ccc(C(O)(C(N)=O)C(F)(F)F)cc1-c1cnc(N)c(C(=O)NCC(O)C(F)(F)F)n1 (single isomer, unassigned) [Example 43B, 3-amino-6-(5-(3-amino-1,1,1-trifluoro-2-hydroxy-3-oxopropan-2-yl)-2-methylphenyl)-N-(3,3,3-trifluoro-2-hydroxypropyl)pyrazine-2-carboxamide] | < 100 | < 100 | – |
| Cc1ccc(C(O)(C(N)=O)C(F)(F)F)cc1-c1cnc(N)c(C2CC(C(=O)NC(C)C)C2)n1 (single isomer, unassigned) [Example 111, 3-(3-Amino-6-(5-(3-amino-1,1,1-trifluoro-2-hydroxy-3-oxopropan-2-yl)-2-methylphenyl)pyrazin-2-yl)-N-isopropylcyclobutane-1-carboxamide] | – | – | 100 to 500 |
| Cc1ccc(C(O)(C(N)=O)C(F)(F)F)cc1-c1cnc(N)c(C(=O)NCC(C)(C)O)n1 (stereo not shown) [Example 1, 3-Amino-6-(5-(3-amino-1,1,1-trifluoro-2-hydroxy-3-oxopropan-2-yl)-2-methylphenyl)-N-(2-hydroxy-2-methylpropyl)pyrazine-2-carboxamide] | < 100 | < 100 | – |
| Cc1ccc(C(O)(C(N)=O)C(F)(F)F)cc1-c1cnc(N)c(C(=O)NC2CCOCC2)n1 (stereo not shown) [Example 2, 3-amino-6-(5-(3-amino-1,1,1-trifluoro-2-hydroxy-3-oxopropan-2-yl)-2-methylphenyl)-N-(tetrahydro-2H-pyran-4-yl)pyrazine-2-carboxamide trifluoroacetate] | < 100 | < 100 | – |
| Cc1ccc(C(O)(C(N)=O)C(F)(F)F)cc1-c1cnc(N)c(C(=O)NCC2(C#N)CC2)n1 (stereo not shown) [Example 4, 3-amino-6-(5-(3-amino-1,1,1-trifluoro-2-hydroxy-3-oxopropan-2-yl)-2-methylphenyl)-N-((1-cyanocyclopropyl)methyl)pyrazine-2-carboxamide trifluoroacetate] | < 100 | < 100 | – |
| Cc1ccc(C(O)(C(N)=O)C(F)(F)F)cc1-c1cnc(N)c(C(=O)NC(C)C)n1 (stereo not shown) [Example 5, 3-Amino-6-(5-(3-amino-1,1,1-trifluoro-2-hydroxy-3-oxopropan-2-yl)-2-methylphenyl)-N-isopropylpyrazine-2-carboxamide trifluoroacetate] | < 100 | < 100 | – |
| Cc1ccc(C(O)(C(N)=O)C(F)(F)F)cc1-c1cnc(N)c(C(=O)NC2CCC(F)(F)CC2)n1 (stereo not shown) [Example 6, 3-amino-6-(5-(3-amino-1,1,1-trifluoro-2-hydroxy-3-oxopropan-2-yl)-2-methylphenyl)-N-(4,4-difluorocyclohexyl)pyrazine-2-carboxamide trifluoroacetate] | < 100 | < 100 | – |
| CCNC(=O)c1nc(-c2cc(C(O)(C(N)=O)C(F)(F)F)ccc2C)cnc1N (stereo not shown) [Example 7, 3-Amino-6-(5-(3-amino-1,1,1-trifluoro-2-hydroxy-3-oxopropan-2-yl)-2-methylphenyl)-N-ethylpyrazine-2-carboxamide trifluoroacetate] | < 100 | < 100 | – |
| Cc1ccc(C(O)(C(N)=O)C(F)(F)F)cc1-c1cnc(N)c(C(=O)N[C@@H](C)CC#N)n1 (stereo partly drawn) [Example 8, 3-amino-6-(5-(3-amino-1,1,1-trifluoro-2-hydroxy-3-oxopropan-2-yl)-2-methylphenyl)-N-((S)-1-cyanopropan-2-yl)pyrazine-2-carboxamide trifluoroacetate] | < 100 | < 100 | – |
